# In patent publication US20230414644A1, “ORAL CANINE FEED AND METHODS FOR CONTROLLING FLEA INFESTATIONS IN A CANINE” (In the Bowl Animal Health, Inc., priority 2021, published 2023):
# Test system: Ctenocephalides felis
# Experiment: Efficacy of spinosyn administered per os (liquid formulation, daily) to dogs against experimental flea infestation, comb counts of live adult fleas
# Type: in vivo
# Conditions: for percent reduction in live adult flea counts: day 14 comb count; for Efficacy (percent reduction in live adult flea counts): day 37, after the five day wash out period
# Description: Efficacy of Spinosyn Administered Per Os, i.e. by Mouth, to Dogs for the Treatment and Control of Ctenocephalides felis.
# Methods: A pool of 40 dogs are to be preliminarily infested with ˜100 unfed adult C. felis in order to produce a pool of dogs that can suitably sustain a reliable infestation rate of approximately 50% of live fleas over a 48-hour period. The dogs with the highest live flea counts are to be randomly allocated to 4 treatment groups (6 dogs per group) based on their pre-treatment flea counts from experimental infestations. The first treatment group is to be the control group and groups 2-4 are to be the test groups.
# The dogs are to be housed individually during the study period and are to be fed a commercial dry dog food ration with ad libitum access to water.
# Dogs in the control group are not to receive a spinosyn or any other flea control treatment. Each dog in test groups 2-4 is to be offered its daily ration (dry food) and the individual doses of liquid formulation are to be administered after the individual dog has eaten at least 25% of its total daily ration. After receiving the dose of a spinosyn the dogs are to be allowed to continue eating. This mimics incorporating the spinosyn in feed. Each dog in test groups 2-4 and the control group is to be experimentally infested with 100 unfed adult fleas on test days −1, 5, 12, 19, 28 and 35. Comb counts for live adult fleas are to be conducted on days 2, 7, 14, 21, 30 and 37. The final experimental infestation is to occur five days after the last daily dose of spinosyn.
substance,measurement,setting,value
spinosad,percent reduction in live adult flea counts,0.25 mg/kg daily oral (Group 2),100%
same,percent reduction in live adult flea counts,0.50 mg/kg daily oral (Group 3),100%
same,Efficacy (percent reduction in live adult flea counts),0.50 mg/kg daily oral days 0-29 (Group 3),over 98%
same,percent reduction in live adult flea counts,1.0 mg/kg daily oral (Group 4),100%
same,Efficacy (percent reduction in live adult flea counts),1.0 mg/kg daily oral days 0-29 (Group 4),over 98%
